The numbers were not newly measured in patent US20010031279A1, “Controlled delivery of antidepressants” (priority 1998, published 2001), which cites them from elsewhere.

Where a name gives a salt, the structure may show the parent alone.

The half-life is how long it takes for the measured level to halve. On to `CCc1nn(CCCN2CCN(c3cccc(Cl)c3)CC2)c(=O)n1CCOc1ccccc1` [nefazodone hydrochloride, 2-[3-[4-(3-chlorophenyl)-piperazinyl]propyl]-5-ethyl-4-(2-phenoxyethyl)-2H-1,2,4-triazol-3(4H)-one hydrochloride], for which, under “conventional immediate release formulations”, the “time of peak plasma concentrations after dosing” value is “about one”. Further, the half-life (in vivo) was 2 to 4 h.
